Where “and” joins values, the source holds several entries; their conditions need not be identical. Equal values may be shown once. Where a name gives a salt, the structure may show the parent alone. Values belong to the compound of their own block, whether it stands above or below them.
Legend:
human serum albumin [1] = biological target: T1, human serum albumin (Homo sapiens, UniProt P02768); test: 19F NMR spin-echo competition binding screening against HSA with spy molecule (3) and control molecule (2)
Protocol: (§1) D2O was added to the solution (8% final concentration) for the lock signal.
A dual coil {^19F}-{^1H} probe was used with the inner coil tuned to ^19F and the outer coil tuned to ^1H frequency. […] These signals are broad and therefore are not visible in the spectra of the reference and control molecule recorded with a spin-echo scheme. All the spectra were recorded with a weak Waltz-16 proton decoupling applied during the acquisition period. Typically 4-8 dummy scans were recorded for temperature equilibration. Carr-Purcell-Meibom-Gill schemes of different length and long 2τ interval were used before the acquisition period. Chemical shifts were referenced to trifluoroacetic acid.
These techniques also provide the number of binding sites (n) for the reference molecule a parameter that is very important for the competition binding experiments.
For screening, a total spin-echo period (2nτ) was selected for which the signal of the reference molecule is approaching zero.

human serum albumin [2] = biological target: T1, human serum albumin; test: Isothermal titration calorimetry with HSA; assay type: binding; design: purchased Sigma A-3782
Protocol: Isothermal titration calorimetry experiments were performed using an OMEGA titrating microcalorimeter from Microcal, Inc. (Northampton, Mass.). The titrating microcalorimeter consisted of a sample and reference cell held in an adiabatic enclosure. The reference cell was filled with PBS. […] Analyte at 0.8 mM in the same buffer was held in a 250 μL syringe. Thirty injections (8 μL each and 12 seconds/injection) of analyte were made by a computer controlled stepper motor into the sample cell held at 25° C. The syringe stir rate was 400 rpm. Heat adsorbed or released with each injection was measured by a thermoelectric device connected to a Microcal nanovolt preamplifier. Titration isotherms for the binding interactions were comprised of the differential heat flow for each injection. Heat of dilution obtained by injecting analyte into PBS was negligible. Binding isotherms were fit to a single binding site model (T. Wiseman et al., Anal. Biochem., 179, 131-137 (1989)) using an iterative nonlinear least-squares algorithm included with the instrument.

PAK4 = biological target: T2, PAK4 (Homo sapiens, UniProt O96013); test: 19F NMR binding and competition binding screening and deconvolution against p21-activated kinase; conditions: 15 μM TFA, 1.5 μM protein
T2 construct: GST (cleaved yes); made in house; host or cells: E. coli
T2 sequence (O96013 321-572 limits assumed, species assumed): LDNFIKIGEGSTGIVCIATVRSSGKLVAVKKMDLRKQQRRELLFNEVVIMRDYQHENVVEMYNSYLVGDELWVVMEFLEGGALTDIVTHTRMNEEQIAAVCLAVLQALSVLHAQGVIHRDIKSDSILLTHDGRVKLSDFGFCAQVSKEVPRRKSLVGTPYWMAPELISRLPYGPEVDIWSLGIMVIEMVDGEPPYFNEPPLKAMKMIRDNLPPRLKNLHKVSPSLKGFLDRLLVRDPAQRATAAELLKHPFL
Protocol: as §1
The signal of the non-interacting molecule represents an internal reference that can be used for calibrating with a single experiment the changes in the signal of the spy molecule. […] It should be noted that some compounds in the screening may contain traces of TFA.

T1 sequence (P02768 25-609): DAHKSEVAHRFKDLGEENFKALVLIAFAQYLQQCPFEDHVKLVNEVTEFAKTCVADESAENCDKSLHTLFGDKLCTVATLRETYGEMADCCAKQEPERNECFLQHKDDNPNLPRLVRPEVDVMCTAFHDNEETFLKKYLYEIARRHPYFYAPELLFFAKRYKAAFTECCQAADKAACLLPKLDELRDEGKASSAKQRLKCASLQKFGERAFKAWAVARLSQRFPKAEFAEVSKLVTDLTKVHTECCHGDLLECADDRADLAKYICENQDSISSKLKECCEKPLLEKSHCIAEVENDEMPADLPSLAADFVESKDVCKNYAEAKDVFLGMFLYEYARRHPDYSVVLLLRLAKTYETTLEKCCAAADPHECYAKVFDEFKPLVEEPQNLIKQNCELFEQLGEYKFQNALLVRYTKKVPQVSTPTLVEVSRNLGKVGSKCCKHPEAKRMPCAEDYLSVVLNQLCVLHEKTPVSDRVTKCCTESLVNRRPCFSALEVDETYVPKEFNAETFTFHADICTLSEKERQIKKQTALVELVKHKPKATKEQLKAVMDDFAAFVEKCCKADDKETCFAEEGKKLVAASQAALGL

Compound: Cc1ccc2[nH]cc(CC(N)C(=O)O)c2c1 (centres unmarked) [5-CH3 D,L Trp]
- effect on the 19F signal of the spy molecule (3) (displacement from HSA) (human serum albumin [1]; 600 nM HSA, 50 μM (3), 25 μM (2), 50 μM 5-CH3 D,L Trp and sucrose, 25 μM (4)): do not alter the spectrum of the spy molecule

Compound: FC(F)(F)c1nnc(N2CCNCC2)s1 [(2), 1-[5-(trifluoromethyl)1,3,4-thiadiazol-2-yl]piperazine]
- evidence of binding to HSA by ITC (human serum albumin [2]; 8 μL injections of 800 μM into 30 μM HSA): did not find any evidence of binding to HSA

- Kd (human serum albumin [1]; KD^app, apparent KD of (3), 50 μM, with 25 μM (4) and 0.6 μM HSA): 327 µM and 300 µM
- Kd (human serum albumin [2]; HSA in PBS + 2% DMSO, 25° C., single binding site model, read-out: ITC derived KD): 41 ± 3.3 µM
Compound: O=C(O)c1cccc(F)c1O [(3), 2-hydroxy 3-fluorobenzoic acid]

Compound: O=C(O)C(F)(F)F [trifluoroacetic acid (TFA), trifluoroacetic acid]
- interaction with the protein (19F spectra in absence and presence of protein) (PAK4): non-interacting

Source: US20040091937A1, “Use of fluorine NMR for high throughput screening” (priority 2002, published 2004)
